In the supplement of paper PMC11208160:

Assay: recombinant UMI read abundance after kanamycin selection (control-corrected) (log10(CPM+1)); higher = more efficient recombination; extreme values may be limits of the assay; sequences stand for … in AGTGCAGAGAAAATCGGCCAGTTTTCTCTGCCTGCAGTCCGCATGCCGTGGGACCCCTTGGGTTCTAACCTGTTGCCTAGATTTATGCAGCGGACTGCCTTTCTCCCAAAGTGATAAACCGG…AGGTTGGTTTCACT; site = the 11-nt donor
Summary of the method: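 Reported values are log10(CPM+1) from a pooled Escherichia coli screen of donor and donor-binding-loop pairs for the IS621 bridge recombinase. Selection used IPTG (0.07 mM) plus kanamycin, against unselected plating, each in two replicates. Recombinant UMIs were amplified across the donor–target junction, sequenced, converted to CPM, averaged over replicates and scaled by control-derived factors.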
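Note: IS621 bridge recombinase in Escherichia coli cells against a fixed T5 target plasmid.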

| Sequence | recombinant UMI read abundance (log10) |
| --- | --- |
| CTGCATCCATGGACCGGTTTTCCCGGTAATCCGTATTTGTT (site CGGAATCCTAA) | 0.00365 |
| CTGCATCCATGGACCGGTTTTCCCGGTAATCCGTATTTGTT (site CTGCATCCTAA) | 0.855 |
| CTGCGACCATGGACCGGTTTTCCCGGTAATCCGTATTTGCT (site CTGCAACCTAG) | 0 |
| CTGCGACCATGGACCGGTTTTCCCGGTAATCCGTATTTGCT (site CTGCCACCTAG) | 0.0046 |
| CTGCGACCATGGACCGGTTTTCCCGGTAATCCGTATTTGCT (site CTGCGACCTAG) | 0 |
| CTGCGACCATGGACCGGTTTTCCCGGTAATCCGTATTTGCT (site CTGCTACCTAG) | 0 |
| CTGCGCTCATGGACCGGTTTTCCCGGTAATCCGTATTTGCG (site CTGCGCTCTCG) | 1.11 |
| CTGCGTGCATGGACCGGTTTTCCCGGTAATCCGTATTTGTA (site CTGCGTGCTTA) | 2.28 |
| CTGCTATCATGGACCGGTTTTCCCGGTAATCCGTATTTGAC (site CTAGTATCTGT) | 0 |
| CTGCTATCATGGACCGGTTTTCCCGGTAATCCGTATTTGAC (site CTGCTATCTGT) | 1.26 |
| CTGCTCCCATGGACCGGTTTTCCCGGTAATCCGTATTTGCT (site CTGCTACCTAG) | 0 |
| CTGCTCCCATGGACCGGTTTTCCCGGTAATCCGTATTTGCT (site CTGCTCCCTAG) | 1.78 |
| CTGCTCCCATGGACCGGTTTTCCCGGTAATCCGTATTTGCT (site CTGCTGCCTAG) | 0 |
| CTGCTCCCATGGACCGGTTTTCCCGGTAATCCGTATTTGCT (site CTGCTTCCTAG) | 0 |
| CTGCTGCCATGGACCGGTTTTCCCGGTAATCCGTATTTGGC (site CTGCTGCCTGC) | 0 |
| CTGGAAACATGGACCGGTTTTCCCGGTAATCCGTATTTGTA (site CTGGAAACTTA) | 2.14 |
| CTGGAAACATGGACCGGTTTTCCCGGTAATCCGTATTTGTA (site CTGGAAACTTC) | 0.294 |
| CTGGAAACATGGACCGGTTTTCCCGGTAATCCGTATTTGTA (site CTGGAAACTTG) | 1.22 |
| CTGGAAACATGGACCGGTTTTCCCGGTAATCCGTATTTGTA (site CTGGAAACTTT) | 1.81 |
| CTGGAAGCATGGACCGGTTTTCCCGGTAATCCGTATTTGCA (site CTGGAAACTTG) | 0.803 |
| CTGGAAGCATGGACCGGTTTTCCCGGTAATCCGTATTTGCA (site CTGGAACCTTG) | 0 |
| CTGGAAGCATGGACCGGTTTTCCCGGTAATCCGTATTTGCA (site CTGGAAGCTTG) | 1.04 |
| CTGGAAGCATGGACCGGTTTTCCCGGTAATCCGTATTTGCA (site CTGGAATCTTG) | 3.42 |
| CTGGACACATGGACCGGTTTTCCCGGTAATCCGTATTTGAG (site CTGGACACTCT) | 1.47 |
| CTGGAGGCATGGACCGGTTTTCCCGGTAATCCGTATTTGTG (site ATGGAGGCTCA) | 0.00337 |

| Sequence | recombinant UMI read abundance (log10) |
| --- | --- |
| CTGGAGGCATGGACCGGTTTTCCCGGTAATCCGTATTTGTG (site CTGGAGGCTCA) | 1.02 |
| CTGGAGGCATGGACCGGTTTTCCCGGTAATCCGTATTTGTG (site GTGGAGGCTCA) | 0.0315 |
| CTGGAGGCATGGACCGGTTTTCCCGGTAATCCGTATTTGTG (site TTGGAGGCTCA) | 0.0143 |
| CTGGATACATGGACCGGTTTTCCCGGTAATCCGTATTTGCA (site CTGGAAACTTG) | 1.14 |
| CTGGATACATGGACCGGTTTTCCCGGTAATCCGTATTTGCA (site CTGGACACTTG) | 1.92 |
| CTGGATACATGGACCGGTTTTCCCGGTAATCCGTATTTGCA (site CTGGAGACTTG) | 0.473 |
| CTGGATACATGGACCGGTTTTCCCGGTAATCCGTATTTGCA (site CTGGATACTTG) | 1.81 |
| CTGGATACATGGACCGGTTTTCCCGGTAATCCGTATTTGTC (site CTGGATACTGA) | 1.89 |
| CTGGGACCATGGACCGGTTTTCCCGGTAATCCGTATTTGGT (site CTGGGACCTAC) | 0.0117 |
| CTGGGATCATGGACCGGTTTTCCCGGTAATCCGTATTTGCT (site CTGGGATCTAG) | 1.9 |
| CTGGGCGCATGGACCGGTTTTCCCGGTAATCCGTATTTGTA (site CTGGGCGCTTA) | 1.62 |
| CTGGTATCATGGACCGGTTTTCCCGGTAATCCGTATTTGAA (site CTAGTATCTGT) | 2.25 |
| CTGGTATCATGGACCGGTTTTCCCGGTAATCCGTATTTGAA (site CTGGTATCTTT) | 2.5 |
| CTGGTTACATGGACCGGTTTTCCCGGTAATCCGTATTTGAG (site CTGGTTACTCT) | 1.7 |
| CTGTCAGCATGGACCGGTTTTCCCGGTAATCCGTATTTGGG (site CTGTCAGCTCC) | 0.0174 |
| CTGTCCGCATGGACCGGTTTTCCCGGTAATCCGTATTTGAT (site CTGTCCGCTAT) | 1.96 |
| CTGTCGACATGGACCGGTTTTCCCGGTAATCCGTATTTGGG (site CAGTCGACTCC) | 0.00865 |
| CTGTCGACATGGACCGGTTTTCCCGGTAATCCGTATTTGGG (site CCGTCGACTCC) | 0.0205 |
| CTGTCGACATGGACCGGTTTTCCCGGTAATCCGTATTTGGG (site CGGTCGACTCC) | 0.012 |
| CTGTCGACATGGACCGGTTTTCCCGGTAATCCGTATTTGGG (site CTGTCGACTCC) | 0.0289 |
| CTGTCTACATGGACCGGTTTTCCCGGTAATCCGTATTTGTT (site CTGTCTACTAA) | 0.252 |
| CTGTGATCATGGACCGGTTTTCCCGGTAATCCGTATTTGAA (site CTGTGATCTTT) | 2.65 |
| CTGTGTGCATGGACCGGTTTTCCCGGTAATCCGTATTTGGT (site CTGTGTGCTAC) | 1.44 |
| CTGTTTGCATGGACCGGTTTTCCCGGTAATCCGTATTTGAA (site CTGTTTGCTTT) | 1.66 |
| CTTCCGACATGGACCGGTTTTCCCGGTAATCCGTATTTGGA (site CTTCCGACTTC) | 0.0169 |

| Sequence | recombinant UMI read abundance (log10) |
| --- | --- |
| CTTCCGGCATGGACCGGTTTTCCCGGTAATCCGTATTTGAT (site CTTCCGGCTAT) | 1.14 |
| CTTCGCTCATGGACCGGTTTTCCCGGTAATCCGTATTTGTA (site CTTCACTCTTA) | 1.14 |
| CTTCGCTCATGGACCGGTTTTCCCGGTAATCCGTATTTGTA (site CTTCCCTCTTA) | 0.0134 |
| CTTCGCTCATGGACCGGTTTTCCCGGTAATCCGTATTTGTA (site CTTCGCTCTTA) | 1.8 |
| CTTCGCTCATGGACCGGTTTTCCCGGTAATCCGTATTTGTA (site CTTCTCTCTTA) | 0.00289 |
| CTTCTAACATGGACCGGTTTTCCCGGTAATCCGTATTTGGA (site CTACTAACTTC) | 0.0127 |
| CTTCTAACATGGACCGGTTTTCCCGGTAATCCGTATTTGGA (site CTCCTAACTTC) | 0.00424 |
| CTTCTAACATGGACCGGTTTTCCCGGTAATCCGTATTTGGA (site CTGCTAACTTC) | 0.00962 |
| CTTCTAACATGGACCGGTTTTCCCGGTAATCCGTATTTGGA (site CTTCTAACTTC) | 0.0115 |
| CTTCTCTCATGGACCGGTTTTCCCGGTAATCCGTATTTGAA (site CTTCTCTCTTA) | 0 |
| CTTCTCTCATGGACCGGTTTTCCCGGTAATCCGTATTTGAA (site CTTCTCTCTTC) | 0.199 |
| CTTCTCTCATGGACCGGTTTTCCCGGTAATCCGTATTTGAA (site CTTCTCTCTTG) | 0 |
| CTTCTCTCATGGACCGGTTTTCCCGGTAATCCGTATTTGAA (site CTTCTCTCTTT) | 0.96 |
| CTTGACACATGGACCGGTTTTCCCGGTAATCCGTATTTGAC (site CTTGACACTGT) | 0.445 |
| CTTGCCCCATGGACCGGTTTTCCCGGTAATCCGTATTTGTG (site CTTGCCCCTCA) | 0.0167 |
| CTTGTACCATGGACCGGTTTTCCCGGTAATCCGTATTTGAC (site CTAGTATCTGT) | 0 |
| CTTGTACCATGGACCGGTTTTCCCGGTAATCCGTATTTGAC (site CTTGTACCTGT) | 0 |
| CTTGTGGCATGGACCGGTTTTCCCGGTAATCCGTATTTGGG (site CTTGTGGCTCC) | 0.00701 |
| CTTGTTGCATGGACCGGTTTTCCCGGTAATCCGTATTTGGT (site CTTGTTGCTAC) | 1.26 |
| CTTTCGCCATGGACCGGTTTTCCCGGTAATCCGTATTTGCT (site CTTTCGCCTAG) | 0.0294 |
| CTTTCTCCATGGACCGGTTTTCCCGGTAATCCGTATTTGCT (site CTTTCTCCTAG) | 1.82 |
| CTTTGCCCATGGACCGGTTTTCCCGGTAATCCGTATTTGAG (site CTTTGCCCTCT) | 0.0229 |
| CTTTGGGCATGGACCGGTTTTCCCGGTAATCCGTATTTGTC (site CTTTGGGCTGA) | 0 |
| CTTTTGGCATGGACCGGTTTTCCCGGTAATCCGTATTTGCT (site CATTTGGCTAG) | 0 |
| CTTTTGGCATGGACCGGTTTTCCCGGTAATCCGTATTTGCT (site CCTTTGGCTAG) | 0 |
